Laboratory results from ChEMBL document CHEMBL1240496, “Development of potent glucagon-like peptide-1 agonists with high enzyme stability via introduction of multiple lactam bridges” (J Med Chem, 2010).
Bridge positions count the residues as written; N and C are the ends. Peptide text beside a SMILES is read from it.

What was measured:
[1] = target: T1, Glucagon-like peptide 1 receptor (Homo sapiens, UniProt P43220); test: Activation of human GLP1 receptor expressed in HEK293 cells assessed as increase in cAMP accumulation; format: functional, cell-based
T1 sequence (P43220 whole entry): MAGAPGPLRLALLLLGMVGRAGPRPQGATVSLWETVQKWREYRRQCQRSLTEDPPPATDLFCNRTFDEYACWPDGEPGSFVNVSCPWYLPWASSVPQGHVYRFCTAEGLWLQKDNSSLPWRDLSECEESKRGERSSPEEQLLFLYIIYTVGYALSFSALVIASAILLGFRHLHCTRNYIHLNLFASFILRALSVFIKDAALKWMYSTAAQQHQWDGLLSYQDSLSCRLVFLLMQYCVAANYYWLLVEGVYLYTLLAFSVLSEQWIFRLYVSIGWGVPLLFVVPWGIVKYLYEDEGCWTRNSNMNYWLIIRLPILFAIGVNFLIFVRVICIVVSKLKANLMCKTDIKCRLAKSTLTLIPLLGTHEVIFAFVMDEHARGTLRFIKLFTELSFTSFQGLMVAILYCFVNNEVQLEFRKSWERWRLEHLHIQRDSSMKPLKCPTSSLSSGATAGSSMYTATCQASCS

DPP4 = test: Chemical stability of the compound assessed as half life up to 24 hrs by HPLC analysis in presence of human recombinant DPP4; format: physicochemical
NEP 24.11 = test: Chemical stability of the compound assessed as half life up to 24 hrs by HPLC analysis in presence of human recombinant NEP 24.11; format: physicochemical
[2] = target: T1, Glucagon-like peptide 1 receptor; test: Activation of human GLP1 receptor expressed in HEK293 cells assessed as increase in cAMP accumulation relative to GLP1; format: functional, cell-based

CC[C@H](C)[C@H](NC(=O)[C@H](Cc1ccccc1)NC(=O)[C@H](CCC(=O)O)NC(=O)[C@@H]1CCCCNC(=O)CC[C@H](NC(=O)[C@H](CCC(=O)O)NC(=O)[C@H](CC(C)C)NC(=O)[C@H](Cc2ccc(O)cc2)NC(=O)[C@H](CO)NC(=O)[C@H](CO)NC(=O)[C@@H](NC(=O)[C@H](CC(=O)O)NC(=O)[C@H](CO)NC(=O)[C@@H](NC(=O)[C@H](Cc2ccccc2)NC(=O)[C@@H](NC(=O)CNC(=O)[C@H](CCC(=O)O)NC(=O)[C@H](C)NC(=O)[C@@H](N)Cc2cnc[nH]2)[C@@H](C)O)[C@@H](C)O)C(C)C)C(=O)N[C@@H](CCC(N)=O)C(=O)N[C@@H](C)C(=O)N[C@@H](C)C(=O)N1)C(=O)N[C@@H](C)C(=O)N[C@@H](Cc1c[nH]c2ccccc12)C(=O)N[C@@H](CC(C)C)C(=O)N[C@H](C(=O)N[C@@H](CCCCN)C(=O)NCC(=O)N[C@@H](CCCN=C(N)N)C(=O)O)C(C)C
EC50 ([1]; read-out: EC50): 2.8 nM | EC50 ([1]; read-out: pEC50 (converted)): 5.01 nM | half-life (DPP4): 2.9 h | half-life (NEP 24.11): 6.9 h

CC[C@H](C)[C@H](NC(=O)[C@H](Cc1ccccc1)NC(=O)[C@H](CCC(=O)O)NC(=O)[C@H](CCCCN)NC(=O)[C@H](C)NC(=O)[C@H](C)NC(=O)[C@H](CCC(N)=O)NC(=O)[C@@H]1CCCCNC(=O)CC[C@H](NC(=O)[C@H](CO)NC(=O)[C@@H](NC(=O)[C@H](CC(=O)O)NC(=O)[C@H](CO)NC(=O)[C@@H](NC(=O)[C@H](Cc2ccccc2)NC(=O)[C@@H](NC(=O)CNC(=O)[C@H](CCC(=O)O)NC(=O)[C@H](C)NC(=O)[C@@H](N)Cc2cnc[nH]2)[C@@H](C)O)[C@@H](C)O)C(C)C)C(=O)N[C@@H](Cc2ccc(O)cc2)C(=O)N[C@@H](CC(C)C)C(=O)N[C@@H](CCC(=O)O)C(=O)N1)C(=O)N[C@H]1CCC(=O)NCCCC[C@@H](C(=O)NCC(=O)N[C@@H](CCCN=C(N)N)C(N)=O)NC(=O)[C@H](C(C)C)NC(=O)[C@H](CC(C)C)NC(=O)[C@H](Cc2c[nH]c3ccccc23)NC1=O
EC50 ([1]; read-out: EC50): 1.9 nM | half-life (DPP4): 3.6 h | half-life (NEP 24.11): > 96 h

CC[C@H](C)[C@H](NC(=O)[C@H](Cc1ccccc1)NC(=O)[C@H](CCC(=O)O)NC(=O)[C@@H]1CCCCNC(=O)CC[C@H](NC(=O)[C@H](CCC(=O)O)NC(=O)[C@H](CC(C)C)NC(=O)[C@H](Cc2ccc(O)cc2)NC(=O)[C@H](CO)NC(=O)[C@H](CO)NC(=O)[C@@H](NC(=O)[C@H](CC(=O)O)NC(=O)[C@H](CO)NC(=O)[C@@H](NC(=O)[C@H](Cc2ccccc2)NC(=O)[C@@H](NC(=O)CNC(=O)[C@H](CCC(=O)O)NC(=O)[C@H](C)NC(=O)[C@@H](N)Cc2cnc[nH]2)[C@@H](C)O)[C@@H](C)O)C(C)C)C(=O)N[C@@H](CCC(N)=O)C(=O)N[C@@H](C)C(=O)N[C@@H](C)C(=O)N1)C(=O)N[C@@H](C)C(=O)N[C@@H](Cc1c[nH]c2ccccc12)C(=O)N[C@@H](CC(C)C)C(=O)N[C@H](C(=O)N[C@@H](CCCCN)C(=O)NCC(=O)N[C@@H](CCCNC(=N)N)C(=O)O)C(C)C
Activity [2]: 160%

CC[C@H](C)[C@H](NC(=O)[C@H](Cc1ccccc1)NC(=O)[C@H](CCC(=O)O)NC(=O)[C@H](CCCCN)NC(=O)[C@H](C)NC(=O)[C@H](C)NC(=O)[C@H](CCC(N)=O)NC(=O)[C@@H]1CCCCNC(=O)CC[C@H](NC(=O)[C@H](CO)NC(=O)[C@@H](NC(=O)[C@H](CC(=O)O)NC(=O)[C@H](CO)NC(=O)[C@@H](NC(=O)[C@H](Cc2ccccc2)NC(=O)[C@@H](NC(=O)CNC(=O)[C@H](CCC(=O)O)NC(=O)[C@H](C)NC(=O)[C@@H](N)Cc2cnc[nH]2)[C@@H](C)O)[C@@H](C)O)C(C)C)C(=O)N[C@@H](Cc2ccc(O)cc2)C(=O)N[C@@H](CC(C)C)C(=O)N[C@@H](CCC(=O)O)C(=O)N1)C(=O)N[C@H]1CCC(=O)NCCCC[C@@H](C(=O)NCC(=O)N[C@@H](CCCNC(=N)N)C(N)=O)NC(=O)[C@H](C(C)C)NC(=O)[C@H](CC(C)C)NC(=O)[C@H](Cc2c[nH]c3ccccc23)NC1=O
Activity [2]: 240%

CC[C@H](C)[C@H](NC(=O)[C@H](Cc1ccccc1)NC(=O)[C@H](CCC(=O)O)NC(=O)[C@@H]1CCCCNC(=O)CC[C@H](NC(=O)[C@H](CCC(=O)O)NC(=O)[C@@H]2CCCCNC(=O)CC[C@H](NC(=O)[C@H](CC(=O)O)NC(=O)[C@H](CO)NC(=O)[C@@H](NC(=O)[C@H](Cc3ccccc3)NC(=O)[C@@H](NC(=O)CNC(=O)[C@H](CCC(=O)O)NC(=O)[C@H](C)NC(=O)[C@@H](N)Cc3cnc[nH]3)[C@@H](C)O)[C@@H](C)O)C(=O)N[C@@H](CO)C(=O)N[C@@H](CO)C(=O)N[C@@H](Cc3ccc(O)cc3)C(=O)N2)C(=O)N[C@@H](CCC(N)=O)C(=O)N[C@@H](C)C(=O)N[C@@H](C)C(=O)N1)C(=O)N[C@H]1CCC(=O)NCCCC[C@@H](C(=O)NCC(=O)N[C@@H](CCCN=C(N)N)C(N)=O)NC(=O)[C@H](C(C)C)NC(=O)[C@H](CC(C)C)NC(=O)[C@H](Cc2c[nH]c3ccccc23)NC1=O (H-HAEGTFTSDESSYKEEQAAKEFIEWLVKGR-NH2; lactam 10-14, 16-20, 24-28)
EC50 ([1]; read-out: EC50): 1.8 nM | half-life (DPP4): > 24 h | half-life (NEP 24.11): > 96 h

CC[C@H](C)[C@H](NC(=O)[C@H](Cc1ccccc1)NC(=O)[C@H](CCC(=O)O)NC(=O)[C@H](CCCCN)NC(=O)[C@H](C)NC(=O)[C@H](C)NC(=O)[C@H](CCC(N)=O)NC(=O)CNC(=O)[C@H](CCC(=O)O)NC(=O)[C@@H]1CCCCNC(=O)CC[C@H](NC(=O)[C@H](CC(=O)O)NC(=O)[C@H](CO)NC(=O)[C@@H](NC(=O)[C@H](Cc2ccccc2)NC(=O)[C@@H](NC(=O)CNC(=O)[C@H](CCC(=O)O)NC(=O)[C@H](C)NC(=O)[C@@H](N)Cc2cnc[nH]2)[C@@H](C)O)[C@@H](C)O)C(=O)N[C@@H](CO)C(=O)N[C@@H](CO)C(=O)N[C@@H](Cc2ccc(O)cc2)C(=O)N1)C(=O)N[C@H]1CCC(=O)NCCCC[C@@H](C(=O)NCC(=O)N[C@@H](CCCN=C(N)N)C(N)=O)NC(=O)[C@H](C(C)C)NC(=O)[C@H](CC(C)C)NC(=O)[C@H](Cc2c[nH]c3ccccc23)NC1=O (H-HAEGTFTSDESSYKEGQAAKEFIEWLVKGR-NH2; lactam 10-14, 24-28)
EC50 ([1]; read-out: EC50): 3.3 nM | half-life (DPP4): 3.1 h | half-life (NEP 24.11): 6.6 h

CC[C@H](C)[C@H](NC(=O)[C@H](Cc1ccccc1)NC(=O)[C@H](CCC(=O)O)NC(=O)[C@H](CCCCN)NC(=O)[C@H](C)NC(=O)[C@H](C)NC(=O)[C@H](CCC(N)=O)NC(=O)CNC(=O)[C@H](CC(C)C)NC(=O)[C@H](Cc1ccc(O)cc1)NC(=O)[C@H](CO)NC(=O)[C@H](CO)NC(=O)[C@@H](NC(=O)[C@H](CC(=O)O)NC(=O)[C@H](CO)NC(=O)[C@@H](NC(=O)[C@H](Cc1ccccc1)NC(=O)[C@@H](NC(=O)CNC(=O)[C@H](CCC(=O)O)NC(=O)[C@H](C)NC(=O)[C@@H](N)Cc1cnc[nH]1)[C@@H](C)O)[C@@H](C)O)C(C)C)C(=O)N[C@@H](C)C(=O)N[C@@H](Cc1c[nH]c2ccccc12)C(=O)N[C@@H](CC(C)C)C(=O)N[C@H](C(=O)N[C@@H](CCCCN)C(=O)NCC(=O)N[C@@H](CCCNC(=N)N)C(=O)O)C(C)C [GLP-1] (H-HAEGTFTSDVSSYLGQAAKEFIAWLVKGR-OH)
half-life (DPP4): 2 h | half-life (NEP 24.11): 4.6 h
